This note sets out measurements from patent publication US7041661B2, “Use of thiazolobenzoheterocycles for treating multiple sclerosis” (Aventis Pharmaceuticals Inc., priority 2002, dated 2006).

SMILES strings stand for the structures.

For assay [1], the system named is Experimental Allergic Encephalomyelitis (EAE) of female SJL mice. In words: PLP 139-151 induced EAE in SJL/J mice, daily neurological score. It is filed as in vivo, mouse. An excerpt:
The utility of the thiazobenzohetercyclic compounds of formula I for the treatment of various conditions associated with multiple sclerosis can be assessed by measuring their ability to inhibit effects of experimental allergic encephalomyelitis (EAE) in laboratory animals.
Experimental Autoimmune Encephalomyelitis (EAE) is a T-cell-mediated autoimmune disease of the nervous system that develops in susceptible animals following sensitization with either whole spinal cord homogenate or a myelin component. It is known that EAE reflects or mimics many of the pathophysiological steps in MS, including the role of certain adhesion molecules, the influence of T cells and antibodies reactive to components of the myelin sheath, the participation of metalloproteases in penetrating the blood-brain barrier, and the cytotoxic role of certain cytokines. One of the marketed MS therapies, glatiramer acetate (Copaxone®) was developed preclinically based on its success in treating various models of EAE.
EAE was induced in female SJL/J mice (8 wks old, from Jackson Laboratories) by immunization with the myelin Proteolipid Protein (PLP 139-151) from BACHEM, Bioscience. PLP139-151 was dissolved in H2O:PBS (1:1) solution to a concentration of 7.5 mg/10 ml (for 75 ug PLP per mouse) and emulsified with an equal volume of CFA supplemented with 40 mg/10 ml heated-killed mycobacterium tuberculosis H37Ra (BD Bioscience). Mice were injected s.c. with 0.2 ml of peptide emulsion in the abdominal flank (0.1 ml on each side). On the same day and 72 hr later, mice were injected i.v. with 35 ng and 50 ng of Bordetella Pertussis toxin (List Biological Laboratories ) in saline, respectively.
Compound A, one representative of thiazolobenzoheterocyclic compounds, was examined in the PLP/SJL mouse EAE model.
Study 1: There were five groups, i.e., vehicle (water), Compound A at doses of 5, 10 and 20 mg/kg and dexamethasone (DEX) at a dose of 3 mg/kg. Treatment was begun on day 7 after PLP immunization. Mice were dosed twice per day for 22 days. Results are as follows:
Study 2: There were five groups, i.e., vehicle (water), Compound A at doses of 10, 20 and 30/40 mg/kg and dexamethasone (DEX) at a dose of 3 mg/kg. Treatment was begun on day 7 after PLP immunization. Mice were dosed twice per day for 18 days.

Assay [2] has as its system Experimental Allergic Encephalomyelitis (EAE) of female DA (Dark Agouti) rats. Description: Rat spinal cord homogenate induced EAE in DA rats, daily neurological score. The format is in vivo. Particulars: doses of 1, 3 and 10 mg/kg p.o., twice daily for 28 days from one day post-immunization. The method, then:
EAE was induced in female DA (Dark Agouti) rats (8 wks old, from Harlan) by immunization with the 25% w/v rat spinal cord homogenate (r-SCH) in saline emulsified with an equal volume of CFA supplemented with 40 mg/10 ml heated-killed mycobacterium tuberculosis H37Ra (BD Bioscience). Rats were injected s.c. with 0.2 ml of emulsion in the base of tail.
Rats were scored daily before treatment starting from day 5 post-immunization through the entire experiment by a well-known behavioral scale system: Score 0, normal; 0.5, partial limp tail; 1, complete limp tail; 2, abnormal gait; 3, partial hind limb paralysis, and mice unable to walk normally; 3.5, one leg is completely paralyzed, and one leg is partially paralyzed; 4, complete hind limb paralysis; 4.5, Legs are completely paralyzed and Moribund; 5, death due to EAE. Compound A and Compound B (active metabolite of Compound A), two representatives of thiazolobenzoheterocyclic compounds, were examined in DA rat EAE procedure.
Compound A and Compound B were given one-day post-immunization, p.o. route, twice daily for 28 days.

Setting [3] is: Study 2, SJL EAE mice, twice per day for 18 days from day 7.

As to `N=c1sc2cc(C(F)(F)F)cc3c2n1CC[S+]([O-])C3` (racemic) [Compound A, (R,S)-2-imino-9-trifluoromethyl-4,5-dihydro-2H,7H-thiazolo[3,4,5-de][4,1]benzothiazepine-6-oxide], the “neurological deficits in the EAE mice (FIG. 1)” value in assay [1] (Study 1, doses of 10 and 20 mg/kg p.o., twice per day for 22 days from day 7 after PLP immunization, vs vehicle) is given as “significantly reduced”. Besides, in assay [1] (setting [3]), the EAE incidence entry is reported as “reduced” and the disease onset result is reported as “delayed”. In addition, the “neurological scores in SJL EAE mice” value in assay [1] (Study 2, doses of 10 and 20 mg/kg, twice per day for 18 days from day 7 after PLP immunization) is listed as “significant reduced”. For the same compound, in assay [2], the EAE incidence result is given as “significantly reduced”, the cumulative neurological scores result is “significantly reduced” and the maximal neurological scores entry is given as “significantly reduced”.

`N=c1sc2cc(C(F)(F)F)cc3c2n1CCS(=O)(=O)C3` [Compound B, (R,S)-2-imino-9-trifluoromethyl-4,5-dihydro-2H,7H-thiazolo[3,4,5-de][4,1]benzothiazepine-6,6-dioxide]: in assay [2], the EAE incidence entry is on record as “significantly reduced”, the cumulative neurological scores entry is on record as “significantly reduced” and the maximal neurological scores result is reported as “significantly reduced”.
